Source: US20170368054A1, “Treatment of Glaucoma Using Laquinimod” (Teva Pharmaceutical Industries, Ltd., priority 2013, published 2017)

Test system: optic nerve
Assay: Optic nerve injury grading (toluidine blue cross-sections, Grade 1-5) in rat OHT model
Format: in vivo, Brown Norway rats (Rattus norvegicus)
Conditions: for Mean ON Injury Grade (Mean±SD), Non-OHT (control) eyes / Mean ON Injury Grade (Mean±SD), OHT optic nerves: grade scale 1-5; for Mean ON Injury Grade (Mean±SD), OHT optic nerves: vehicle 3.0±1.6
Experimental: Animals were euthanized 5 weeks after the 2nd HSI. The retinas were flat-mounted, slide IDs were masked and 8 regions per retina were imaged using a confocal microscope. RGC at these regions were counted using the Image J software. After the optic nerves were extracted, they were plastic-embedded, sectioned and stained with Toluidine Blue at Schepens Eye Research Institute, Boston, Mass.. The injury in the optic nerves was evaluated and graded by microscopic examination in a masked fashion. The eyes were immediately enucleated with the optic nerve attached. An approximately 2.0 mm piece of the ON proximal to the globe is separated and labeled with tissue mark to indicate the orientation of the nerve. The ON piece is placed in Modified Karnovsky's Fixative in 0.1 M Na cacodylate buffer and kept at 4±2° C. overnight. The next day ON piece was washed at least three times for at least 10 minutes each in 0.1 M Na cacodylate buffer and stored in 0.1 M Na cacodylate buffer at 4±2° C. After specimens were transferred to a contracted processing facility, within a week, the optic nerves were processed for plastic embedding: After post-fixation in 2% osmium tetroxide in 0.1 M Na cacodylate buffer for at least 1.5 hours, ONs were dehydrated in graded ethanols, transitioned in propylene oxide and infiltrated with propylene oxide and epon mixtures. One to five (1-5) μm-thick cross-sections were taken via a microtome at the ON end approximately 2.0 mm away from the globe. ON sections were stained with 1% toluidine blue and cover-slipped. The processed specimens were returned. The identification of the ONs were masked prior to injury analysis. The ON cross-sections were analyzed for injury by light microscopy as follows: The damaging effect of the sustained IOP elevation was assessed by qualitative microscopic analysis of the ON cross-sections using a well-established grading system described in Table 9. This method allowed damage analysis of the entire retinal ganglion cell output (the ON) in one section by light microscopy and was more sensitive than counting total axons especially if there is mild nerve damage. […] The extent of injury was then graded by light microscopy based on a pattern of damage observed in rats with elevated IOP. [table] The damaging effect of the sustained IOP elevation was assessed by qualitative microscopic analysis of the ON cross-sections using a well-established grading system described in Table 9. This method allowed damage analysis of the entire retinal ganglion cell output (the ON) in one section by light microscopy and was more sensitive than counting total axons especially if there is mild nerve damage. […] The extent of injury was then graded by light microscopy based on a pattern of damage observed in rats with elevated IOP.

In the case of `CCN(C(=O)c1c(O)c2c(Cl)cccc2n(C)c1=O)c1ccccc1` [Laquinimod], the “Mean ON Injury Grade (Mean±SD), Non-OHT (control) eyes” value (Group 1, topical 1% laquinimod (left eye dosed only)) is reported as 1.1±0.1, the “Mean ON Injury Grade (Mean±SD), OHT optic nerves” value (Group 1, topical 1% laquinimod) is reported as 2.5±1.3 and the “Mean ON Injury Grade (Mean±SD), Non-OHT (control) eyes” value (Group 3, topical 4% laquinimod (left eye dosed only)) is reported as 1.2±0.2. For the same compound, the “Mean ON Injury Grade (Mean±SD), OHT optic nerves” value (Group 3, topical 4% laquinimod) was 3.0±1.5, the “Mean ON Injury Grade (Mean±SD), Non-OHT (control) eyes” value (Group 4, topical 0.25% laquinimod (left eye dosed only)) was 1.2±0.3 and the “Mean ON Injury Grade (Mean±SD), OHT optic nerves” value (Group 4, topical 0.25% laquinimod) was 2.8±1.3. For the same compound, the “Mean ON Injury Grade (Mean±SD), Non-OHT (control) eyes” value (Group 5, oral 0.1% laquinimod) was 1.2±0.2, the “Mean ON Injury Grade (Mean±SD), OHT optic nerves” value (Group 5, oral 0.1% laquinimod) was 2.7±1.5 and the “Mean ON injury grades, OHT eyes compared to Non-OHT control eyes, two-tailed paired-t tests” value (all groups, P<0.05) was “significantly greater in the OHT eyes”. For the same compound, the “Mean ON injury grades in OHT and Non-OHT eyes versus groups, Two-Way ANOVA eye versus group interaction” value (all groups, P=0.98) was “groups did not differ”.
